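Grown in 96-well plates, cells were treated for 48 hours with each compound at five concentrations. Insufficient inhibition: endpoint recorded as highest concentration tested. TGI: concentration producing complete growth inhibition.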
What was measured:
Assay in all cases: growth of human tumour cells (NCI), 48 h
A498 renal = tested on: A498 renal
ACHN renal = tested on: ACHN renal
CAKI-1 renal = tested on: CAKI-1 renal
CCRF-CEM leukemia = tested on: CCRF-CEM leukemia
COLO 205 colon = tested on: COLO 205 colon
DLD-1 colon = tested on: DLD-1 colon
DMS 114 small cell lung = tested on: DMS 114 small cell lung
EKVX NSCLC = tested on: EKVX NSCLC
HCT-15 colon = tested on: HCT-15 colon
HL-60(TB) leukemia = tested on: HL-60(TB) leukemia
HOP-18 NSCLC = tested on: HOP-18 NSCLC
HOP-92 NSCLC = tested on: HOP-92 NSCLC
HT29 colon = tested on: HT29 colon
IGROV1 ovarian = tested on: IGROV1 ovarian
K-562 leukemia = tested on: K-562 leukemia
KM20L2 colon = tested on: KM20L2 colon
LOX IMVI melanoma = tested on: LOX IMVI melanoma
LXFL 529 NSCLC = tested on: LXFL 529 NSCLC
M14 melanoma = tested on: M14 melanoma
M19-MEL melanoma = tested on: M19-MEL melanoma
MALME-3M melanoma = tested on: MALME-3M melanoma
MOLT-4 leukemia = tested on: MOLT-4 leukemia
NCI-H226 lung = tested on: NCI-H226 lung
NCI-H23 lung = tested on: NCI-H23 lung
NCI-H460 lung = tested on: NCI-H460 lung
NCI-H522 lung = tested on: NCI-H522 lung
OVCAR-3 ovarian = tested on: OVCAR-3 ovarian
OVCAR-8 ovarian = tested on: OVCAR-8 ovarian
RPMI-8226 leukemia = tested on: RPMI-8226 leukemia
RXF-631 renal = tested on: RXF-631 renal
SF-268 CNS = tested on: SF-268 CNS
SF-295 CNS = tested on: SF-295 CNS
SF-539 CNS = tested on: SF-539 CNS
SK-MEL-2 melanoma = tested on: SK-MEL-2 melanoma
SK-MEL-28 melanoma = tested on: SK-MEL-28 melanoma
SK-MEL-5 melanoma = tested on: SK-MEL-5 melanoma
SK-OV-3 ovarian = tested on: SK-OV-3 ovarian
SN12C renal = tested on: SN12C renal
SNB-19 CNS = tested on: SNB-19 CNS
SNB-75 CNS = tested on: SNB-75 CNS
SNB-78 CNS = tested on: SNB-78 CNS
SW-620 colon = tested on: SW-620 colon
TK-10 renal = tested on: TK-10 renal
U251 CNS = tested on: U251 CNS
UACC-62 melanoma = tested on: UACC-62 melanoma
UO-31 renal = tested on: UO-31 renal
XF 498 CNS = tested on: XF 498 CNS
786-0 renal = tested on: 786-0 renal
A549 NSCLC = tested on: A549 NSCLC
HCC-2998 colon = tested on: HCC-2998 colon
HCT-116 colon = tested on: HCT-116 colon
HOP-62 NSCLC = tested on: HOP-62 NSCLC
KM12 colon = tested on: KM12 colon
OVCAR-4 ovarian = tested on: OVCAR-4 ovarian
OVCAR-5 ovarian = tested on: OVCAR-5 ovarian
RXF 393 renal = tested on: RXF 393 renal
UACC-257 melanoma = tested on: UACC-257 melanoma
SR leukemia = tested on: SR leukemia

Measured: TGI

CC1=NC(C(=O)O)Cc2c1[nH]c1ccccc21 (stereo not drawn)
> 100 µM: A498 renal | ACHN renal | CAKI-1 renal | CCRF-CEM leukemia | COLO 205 colon | DLD-1 colon | DMS 114 small cell lung | EKVX NSCLC | HCT-15 colon | HL-60(TB) leukemia | HOP-18 NSCLC | HOP-92 NSCLC | HT29 colon | IGROV1 ovarian | K-562 leukemia | KM20L2 colon | LOX IMVI melanoma | LXFL 529 NSCLC | M14 melanoma | M19-MEL melanoma | MALME-3M melanoma | MOLT-4 leukemia | NCI-H226 lung | NCI-H23 lung | NCI-H460 lung | NCI-H522 lung | OVCAR-3 ovarian | OVCAR-8 ovarian | RPMI-8226 leukemia | RXF-631 renal | SF-268 CNS | SF-295 CNS | SF-539 CNS | SK-MEL-2 melanoma | SK-MEL-28 melanoma | SK-MEL-5 melanoma | SK-OV-3 ovarian | SN12C renal | SNB-19 CNS | SNB-75 CNS | SNB-78 CNS | SW-620 colon | TK-10 renal | U251 CNS | UACC-62 melanoma | UO-31 renal | XF 498 CNS

Cc1ncc(CCl)c2c1OC(C)(C)OC2
36 µM: HOP-18 NSCLC
73.1 µM: HOP-92 NSCLC
65.2 µM: HL-60(TB) leukemia
40.3 µM: OVCAR-5 ovarian
56.6 µM: SK-MEL-28 melanoma
65.8 µM: HCT-116 colon
33.5 µM: LOX IMVI melanoma
27.5 µM: U251 CNS
41.2 µM: 786-0 renal
45.4 µM: ACHN renal
> 100 µM: A498 renal | A549 NSCLC | CCRF-CEM leukemia | DLD-1 colon | DMS 114 small cell lung | HCC-2998 colon | HOP-62 NSCLC | HT29 colon | IGROV1 ovarian | K-562 leukemia | KM12 colon | KM20L2 colon | LXFL 529 NSCLC | M14 melanoma | M19-MEL melanoma | MOLT-4 leukemia | NCI-H226 lung | NCI-H23 lung | NCI-H460 lung | OVCAR-8 ovarian | RPMI-8226 leukemia | SF-295 CNS | SF-539 CNS | SK-MEL-2 melanoma | SK-OV-3 ovarian | SN12C renal | SNB-19 CNS | SNB-78 CNS | TK-10 renal | UACC-257 melanoma | UACC-62 melanoma | UO-31 renal | XF 498 CNS
73.9 µM: RXF-631 renal
32.6 µM: NCI-H522 lung
41.4 µM: EKVX NSCLC
29.5 µM: RXF 393 renal
37 µM: MALME-3M melanoma
28.4 µM: OVCAR-4 ovarian
53.6 µM: SF-268 CNS
69.7 µM: OVCAR-3 ovarian
34 µM: SW-620 colon

CC1=C(C(=O)CC(=O)C(=O)Nc2cccc(Cl)c2C)Sc2ccccc2N1
> 100 µM: 786-0 renal | A549 NSCLC | ACHN renal | CAKI-1 renal | CCRF-CEM leukemia | DLD-1 colon | DMS 114 small cell lung | EKVX NSCLC | HCC-2998 colon | HCT-116 colon | HCT-15 colon | HL-60(TB) leukemia | HOP-18 NSCLC | HOP-62 NSCLC | HOP-92 NSCLC | HT29 colon | IGROV1 ovarian | K-562 leukemia | KM12 colon | LOX IMVI melanoma | LXFL 529 NSCLC | M14 melanoma | M19-MEL melanoma | MALME-3M melanoma | MOLT-4 leukemia | NCI-H226 lung | NCI-H23 lung | NCI-H460 lung | NCI-H522 lung | OVCAR-3 ovarian | OVCAR-4 ovarian | OVCAR-5 ovarian | OVCAR-8 ovarian | RPMI-8226 leukemia | RXF 393 renal | RXF-631 renal | SF-268 CNS | SF-295 CNS | SF-539 CNS | SK-MEL-2 melanoma | SK-MEL-28 melanoma | SK-MEL-5 melanoma | SK-OV-3 ovarian | SN12C renal | SNB-19 CNS | SNB-78 CNS | SR leukemia | SW-620 colon | TK-10 renal | U251 CNS | UACC-257 melanoma | UACC-62 melanoma | UO-31 renal | XF 498 CNS

Source: PubChem BioAssay (NCI)
